In patent EP0908457B1, “3-(1,2-benzisothiazol- and isoxazol-5-Y1)-2,4(1H,3H)-pyrimidinedione or thione and 3-(1,2-benzisothiazol- and isoxazol-5-y1)-4(3H)-pyrimidinone or thione herbicidal agents” (BASF AKTIENGESELLSCHAFT, priority 1997, dated 1999):

Key:
[1] = tested on: Oryza sativa, (L.) Tebonnet; experiment: Rice tolerance to post-transplant applications under flooded paddy conditions (Example 187), ORYSAT (Rice, Tebonnet); details: rated three to four weeks after treatment
[2] = tested on: Cyperus serotinus, Rottb.; experiment: Preemergence weed control under flooded paddy conditions, CYPSE (Flatsedge); format: in vivo; details: preemergence, rated three to four weeks after treatment
[3] = tested on: Monochoria vaginalis, Presl.; experiment: Preemergence weed control under flooded paddy conditions, MOOVA (Monochoria); format: in vivo; details: preemergence, flooded paddy, rated three to four weeks after treatment
[4] = tested on: Echinochloa oryzoides (Ard.) Fritsch.; experiment: Preemergence weed control under flooded paddy conditions, ECHORC (Watergrass (Calif.)); format: in vivo; details: preemergence, flooded paddy, rated three to four weeks after treatment
Sagittaria pygmaea, L. = experiment: Preemergence weed control under flooded paddy conditions, SAGPY (Arrowhead (Pygmaea)); format: in vivo; details: preemergence, flooded paddy, rated three to four weeks after treatment
Cyperus iria = experiment: Preemergence weed control under flooded paddy conditions, CYPIR (Rice Flatsedge); format: in vivo; details: preemergence, flooded paddy, rated three to four weeks after treatment

SMILES | ORYSAT herbicidal rating (rice tolerance) ([1]; 0.0320 kg/ha) | ORYSAT herbicidal rating (rice tolerance) ([1]; 0.0620 kg/ha) | ORYSAT herbicidal rating (rice tolerance) ([1]; 0.1250 kg/ha) | ORYSAT herbicidal rating (rice tolerance) ([1]; 0.2500 kg/ha) | MOOVA herbicidal rating ([3]; 0.0320 kg/ha) | MOOVA herbicidal rating ([3]; 0.0620 kg/ha) | MOOVA herbicidal rating ([3]; 0.1250 kg/ha) | MOOVA herbicidal rating ([3]; 0.2500 kg/ha) | ECHORC herbicidal rating ([4]; 0.0320 kg/ha) | ECHORC herbicidal rating ([4]; 0.0620 kg/ha) | ECHORC herbicidal rating ([4]; 0.1250 kg/ha) | ECHORC herbicidal rating ([4]; 0.2500 kg/ha) | SAGPY herbicidal rating (Sagittaria pygmaea, L.; 0.0320 kg/ha) | SAGPY herbicidal rating (Sagittaria pygmaea, L.; 0.0620 kg/ha) | SAGPY herbicidal rating (Sagittaria pygmaea, L.; 0.1250 kg/ha) | SAGPY herbicidal rating (Sagittaria pygmaea, L.; 0.2500 kg/ha) | CYPIR herbicidal rating (Cyperus iria; 0.0320 kg/ha) | CYPIR herbicidal rating (Cyperus iria; 0.0620 kg/ha) | CYPIR herbicidal rating (Cyperus iria; 0.1250 kg/ha) | CYPIR herbicidal rating (Cyperus iria; 0.2500 kg/ha) | other results
CC(C)c1nsc2ccc(-n3c(=O)cc(C(F)(F)F)n(C)c3=O)cc12 [Example 499, 2,4(1H,3H)-Pyrimidinedione, 3-(3-isopropyl-1,2-benzisothiazol-5-yl)-1-methyl-6-(trifluoromethyl)-] | 6.5 | 8.0 | 7.5 | 9.0 | 8.0 | 9.0 | 9.0 | 9.0 | 7.5 | 9.0 | 9.0 | 9.0 | 8.0 | 9.0 | 9.0 | 9.0 | 8.0 | 9.0 | 9.0 | 9.0 | CYPSE herbicidal rating ([2]; 0.0320 kg/ha): 9.0; CYPSE herbicidal rating ([2]; 0.0620 kg/ha): 9.0; CYPSE herbicidal rating ([2]; 0.1250 kg/ha): 9.0; CYPSE herbicidal rating ([2]; 0.2500 kg/ha): 9.0
CC(C)N(C(C)C)S(=O)(=O)NC(=O)c1nsc2ccc(-n3c(=O)cc(C(F)(F)F)n(C)c3=O)cc12 [Example 500, 1,2-Benzisothiazole-3-carboxamide, 5-[3,6-dihydro-3-methyl-2,6-dioxo-4-(trifluoromethyl)-1(2H)-pyrimidinyl)-N-(diisopropylsulfamoyl)-] | 2.0 | 2.0 | 2.0 | 2.0 | 7.0 | 9.0 | 9.0 | 9.0 | 4.0 | 6.0 | 7.0 | 9.0 | 5.0 | 7.0 | 7.0 | 9.0 | 6.0 | 6.0 | 6.0 | 9.0 | CYPSE herbicidal rating ([2]; 0.0320 kg/ha): 0.0; CYPSE herbicidal rating ([2]; 0.0620 kg/ha): 0.0; CYPSE herbicidal rating ([2]; 0.1250 kg/ha): 0.0; CYPSE herbicidal rating ([2]; 0.2500 kg/ha): 0.0
Cn1c(C(F)(F)F)cc(=O)n(-c2ccc3snc(C(=O)NS(=O)(=O)/C=C/c4ccccc4)c3c2)c1=O [Example 501, 1,2-Benzisothiazole-3-carboxamide, 5-[3,6-dihydro-3-methyl-2,6-dioxo-4-(trifluoromethyl)-1(2H)-pyrimidinyl]-N-(styrylsulfonyl)-, (E)-] | 0.0 | 1.0 | 3.0 | 4.0 | 6.0 | 6.0 | 7.0 | 9.0 | 4.0 | 5.0 | 5.0 | 7.0 | 2.0 | 3.0 | 5.0 | 6.0 | 0.0 | 2.0 | 4.0 | 6.0 | CYPSE herbicidal rating ([2]; 0.0320 kg/ha): 0.0; CYPSE herbicidal rating ([2]; 0.0620 kg/ha): 0.0; CYPSE herbicidal rating ([2]; 0.1250 kg/ha): 3.0; CYPSE herbicidal rating ([2]; 0.2500 kg/ha): 5.0
C=CCOc1c(I)cc(C)cc1-c1nsc2ccc(-n3c(=O)cc(C(F)(F)F)n(C)c3=O)cc12 [Example 505, 2,4(1H,3H)-Pyrimidinedione, 3-{3-[6-(allyloxy)-5-iodo-m-tolyl]-1,2-benzisothiazol-5-yl}-1-methyl-6-(trifluoromethyl)-] | 4.0 | 4.0 | 4.0 | 6.0 | 7.0 | 7.0 | 7.0 | 8.0 | 6.0 | 6.0 | 7.0 | 9.0 | 0.0 | 2.0 | 2.0 | 4.0 | 0.0 |  | 3.0 | 4.0 | CYPSE herbicidal rating ([2]; 0.0620 kg/ha): 0.0; CYPSE herbicidal rating ([2]; 0.1250 kg/ha): 0.0
COc1cc(Cl)c(C)cc1-c1nsc2ccc(-n3c(=O)cc(C(F)(F)F)n(C)c3=O)cc12 [Example 506, 2,4(1H,3H)-Pyrimidinedione, 3-[3-(4-chloro-6-methoxy-m-tolyl)-1,2-benzisothiazol-5-yl]-1-methyl-6-(trifluoromethyl)-] | 1.5 | 1.5 | 1.5 | 2.0 | 8.0 | 9.0 | 9.0 | 9.0 | 7.5 | 9.0 | 9.0 | 9.0 | 2.5 | 3.0 | 3.0 | 4.5 | 6.5 | 8.0 | 9.0 | 9.0 | CYPSE herbicidal rating ([2]; 0.0320 kg/ha): 4.5; CYPSE herbicidal rating ([2]; 0.0620 kg/ha): 4.5; CYPSE herbicidal rating ([2]; 0.1250 kg/ha): 4.5; CYPSE herbicidal rating ([2]; 0.2500 kg/ha): 7.0
CN(C)S(=O)(=O)NC(=O)c1nsc2ccc(-n3c(=O)cc(C(F)(F)F)n(C)c3=O)cc12 [Example 507, 1,2-Benzisothiazole-3-carboxamide, 5-[3,6-dihydro-3-methyl-2,6-dioxo-4-(trifluoromethyl)-1(2H)-pyrimidinyl]-N-(dimethylsulfamoyl)-] | 3.0 | 5.0 | 7.0 | 5.0 | 9.0 | 9.0 | 9.0 | 9.0 | 2.0 | 2.0 | 4.0 | 7.0 | 7.0 | 9.0 | 9.0 | 9.0 | 5.0 | 6.0 | 9.0 | 9.0 | CYPSE herbicidal rating ([2]; 0.0320 kg/ha): 0.0
CC(C)NS(=O)(=O)NC(=O)c1nsc2ccc(-n3c(=O)cc(C(F)(F)F)n(C)c3=O)cc12 [Example 508, 1,2-Benzisothiazole-3-carboxamide, 5-[3,6-dihydro-3-methyl-2,6-dioxo-4-(trifluoromethyl)-1(2H)-pyrimidinyl]-N-(isopropylsulfamoyl)-] | 0.0 | 2.0 | 5.0 | 6.0 | 9.0 | 9.0 | 9.0 | 9.0 | 2.0 | 5.0 | 6.0 | 9.0 | 5.0 | 6.0 | 9.0 | 9.0 | 6.0 | 7.0 | 7.0 | 9.0 | CYPSE herbicidal rating ([2]; 0.0320 kg/ha): 0.0
Cn1c(C(F)(F)F)cc(=O)n(-c2ccc3snc(C(C)(C)C(N)=O)c3c2)c1=O [Example 509, 1,2-Benzisothiazole-3-acetamide, 5-[3,6-dihydro-3-methyl-2,6-dioxo-4-(trifluoromethyl)-1(2H)-pyrimidinyl]-alpha,alpha-dimethyl-] |  | 0.0 | 3.0 | 7.0 |  | 0.0 | 4.0 | 9.0 |  | 0.0 | 2.0 | 7.0 |  | 0.0 | 3.0 | 6.0 |  | 0.0 | 4.0 | 7.0 | CYPSE herbicidal rating ([2]; 0.0620 kg/ha): 0.0; CYPSE herbicidal rating ([2]; 0.1250 kg/ha): 0.0; CYPSE herbicidal rating ([2]; 0.2500 kg/ha): 7.0
